Laboratory results from ChEMBL document CHEMBL4837199, “Design and evaluation of novel piperidine HIV-1 protease inhibitors with potency against DRV-resistant variants” (Eur J Med Chem, 2021).
pEC50, pIC50, pKi: −log10 of the molar value.

Columns and labels:
[1] = target: Human immunodeficiency virus type 1 protease (Human immunodeficiency virus 1, UniProt Q72874); assay: Inhibition of wild type HIV1 protease using Arg-Glu (EDANS)-Ser-Gln-Asn-Tyr-Pro-Ile-Val-Gln-Lys(DABCYL)-Arg as substrate preincubated for 20 to 30 mins followed by substrate addition and measured for 10 mins by FRET assay
[2] = Selectivity index, ratio of CC50 for cytotoxicity against HEK293T cells to IC50 of antiviral activity against HIV1; type: toxicity, cell-based; conditions: human, read-out: Ratio CC50/IC50
[3] = Cytotoxicity against HEK293T cells assessed as reduction in cell viability incubated for 24 hrs by CCK8 assay; type: cell-based, HEK-293T; conditions: human
[4] = tested on: Human immunodeficiency virus 1; assay: Antiviral activity against HIV1; type: functional, organism-based
[5] = tested on: Human immunodeficiency virus 1; assay: (§1) Antiviral activity against HIV1 Env-deficient VSV-G pseudotyped virus infected in human SUP-T1 cells infected with supernatant of compound treated virus-producing 293T cells assessed as inhibition of late stage viral production at 10 uM treated for 48 hrs with virus-producing 293T cells followed by SUP-T1 cells infection for 48 hrs by single-round infection luciferase assay relative to control; type: functional; conditions: Human immunodeficiency virus 1, SUP-T1, time 96 hrs
[6] = tested on: Human immunodeficiency virus 1; assay: Antiviral activity against HIV1 (NL4-3) Env-deficient VSV-G pseudotyped virus infected in human SUP-T1 cells assessed as inhibition of early stage viral production at 10 uM measured after 48 hrs by luciferase assay relative to control; type: functional; conditions: Human immunodeficiency virus 1, NL4-3, SUP-T1
[7] = tested on: Human immunodeficiency virus 1; assay: Antiviral activity against HIV1 subtype C isolate 11928; type: functional, organism-based
[8] = tested on: Human immunodeficiency virus 1; assay: Antiviral activity against HIV1 subtype C isolate-plndie; type: functional, organism-based; conditions: Human immunodeficiency virus 1, subtype C isolate-plndie
[9] = tested on: Human immunodeficiency virus 1; assay: as §1, with “100 nM” for “10 uM”; type: functional; conditions: Human immunodeficiency virus 1, SUP-T1, time 96 hrs
[10] = tested on: Human immunodeficiency virus 1; assay: Antiviral activity against HIV1 NL4-3 infected in human MT4 cells assessed as reduction in viral replication by measuring reduction in p24 Gag production by chemiluminescent-EIA; type: functional, organism-based; conditions: Human immunodeficiency virus 1, NL4-3, MT4
[11] = tested on: Human immunodeficiency virus 1; assay: Antiviral activity against HIV1 subtype C isolate 11941; type: functional, organism-based
[12] = tested on: Human immunodeficiency virus 1; assay: Antiviral activity against DRV resistant HIV1 infected in human MT4 cells assessed as reduction in viral replication by measuring reduction in p24 Gag production by chemiluminescent-EIA; type: functional, organism-based; conditions: Human immunodeficiency virus 1, MT4
[13] = tested on: Human immunodeficiency virus 1; assay: Antiviral activity against HIV1 subtype C isolate 11929; type: functional, organism-based; conditions: Human immunodeficiency virus 1, subtype C isolate 11929
[14] = target: Human immunodeficiency virus type 1 protease (Human immunodeficiency virus 1) (UniProt Q72874); assay: Potency index, ratio of DRV Ki to test compound Ki for inhibition of wild type HIV1 protease using Arg-Glu (EDANS)-Ser-Gln-Asn-Tyr-Pro-Ile-Val-Gln-Lys(DABCYL)-Arg as substrate preincubated for 20 to 30 mins followed by substrate addition and measured for 10 mins by FRET assay; conditions: time 30-40 min
[15] = Resistance index, ratio of IC50 for DRV resistant HIV1 infected in human MT4 cells to IC50 for HIV1 NL4-3 infected in human MT4 cells; type: functional

Row | SMILES | pKi [1] | selectivity ratio [2] | CC50 at 24 h [3] | pIC50 [4] | inhibition at 10 µM [5] | further results
1 | CC(C)CN(C[C@@H](O)[C@H](Cc1ccccc1)NC(=O)OC[C@@H]1CCCNC1)S(=O)(=O)c1ccc(C(F)(F)F)cc1 | 8.76 | > 13000 | > 100000 nM | 8.11 | – | –
2 | COc1ccc(S(=O)(=O)N(CC(C)C)C[C@@H](O)[C@H](Cc2ccccc2)NC(=O)C2CCNCC2)cc1 | 9.26 | > 40800 | > 100000 nM | 8.61 | – | –
3 | CC(C)CN(C[C@@H](O)[C@H](Cc1ccccc1)NC(=O)C1CCNCC1)S(=O)(=O)c1ccc(N)cc1 | 8.26 | – | – | 7.61 | – | –
4 | CC(C)CN(C[C@@H](O)[C@H](Cc1ccccc1)NC(=O)[C@@H]1CCCCN1)S(=O)(=O)c1ccc(C(F)(F)F)cc1 | 8.34 | – | – | 7.69 | – | –
5 | CC(C)CN(C[C@@H](O)[C@H](Cc1ccccc1)NC(=O)OC[C@H]1CCCNC1)S(=O)(=O)c1ccc(C(F)(F)F)cc1 | 8.58 | > 8580 | > 100000 nM | 7.93 | – | –
6 | CC(C)CN(C[C@@H](O)[C@H](Cc1ccccc1)NC(=O)C1CCNCC1)S(=O)(=O)c1ccc(C(F)(F)F)cc1 | 8.23 | – | – | 7.58 | – | –
7 | CC(C)CN(C[C@@H](O)[C@H](Cc1ccccc1)NC(=O)[C@@H]1CCCNC1)S(=O)(=O)c1ccc(C(F)(F)F)cc1 | 10.00 | > 222000 | > 100000 nM | 9.35 | – | –
8 | CC(C)CN(C[C@@H](O)[C@H](Cc1ccccc1)NC(=O)[C@@H]1CCCNC1)S(=O)(=O)c1ccc(N)cc1 | 9.57 | > 82600 | > 100000 nM | 8.92 | 81% | –
9 | CC(C)CN(C[C@@H](O)[C@H](Cc1ccccc1)NC(=O)OC[C@H]1CCCNC1)S(=O)(=O)c1ccc(N)cc1 | 9.00 | > 22100 | > 100000 nM | 8.34 | – | –
10 | COc1ccc(S(=O)(=O)N(CC(C)C)C[C@@H](O)[C@H](Cc2ccccc2)NC(=O)[C@H]2CCCNC2)cc1 | 8.00 | – | – | 7.35 | 93% | –
11 | COc1ccc(S(=O)(=O)N(CC(C)C)C[C@@H](O)[C@H](Cc2ccccc2)NC(=O)[C@@H]2CCCN(C)C2)cc1 | 10.40 | > 556000 | > 100000 nM | 9.74 | 98% | inhibition at 10 µM [6]: 5%
12 | CC(C)CN(C[C@@H](O)[C@H](Cc1ccccc1)NC(=O)[C@H]1CCCNC1)S(=O)(=O)c1ccc(N)cc1 | 7.39 | – | – | 6.74 | – | –
13 | CC(C)CN(C[C@@H](O)[C@H](Cc1ccccc1)NC(=O)OC[C@@H]1CCCNC1)S(=O)(=O)c1ccc(N)cc1 | 9.55 | > 78700 | > 100000 nM | 8.90 | 71% | –
14 | CC(C)CN(C[C@@H](O)[C@H](Cc1ccccc1)NC(=O)O[C@H]1CO[C@H]2OCC[C@H]21)S(=O)(=O)c1ccc(N)cc1 | – | – | > 100000 nM | – | – | pEC50 [7]: 5.70; pEC50 [8]: 5.90; inhibition at 0.1 µM [9]: 100%; pEC50 [10]: 8.41; pEC50 [11]: 6.04; pEC50 [12]: 6.62; pEC50 [13]: 5.44
15 | COc1ccc(S(=O)(=O)N(CC(C)C)C[C@@H](O)[C@H](Cc2ccccc2)NC(=O)[C@@H]2CCCNC2)cc1 | 10.54 | > 769000 | > 100000 nM | 9.89 | 99% | Ratio Ki [14]: 6; pEC50 [7]: 4.31; pEC50 [8]: 4.58; pEC50 [10]: 6.30; Ratio IC50 [15]: 1.8; pEC50 [11]: 4.93; pEC50 [12]: 6.05; pEC50 [13]: 4.83; inhibition at 10 µM [6]: 3%
16 | CC(C)CN(C[C@@H](O)[C@H](Cc1ccccc1)NC(=O)[C@H]1CCCNC1)S(=O)(=O)c1ccc(C(F)(F)F)cc1 | 7.36 | – | – | 6.71 | – | –
17 | COc1ccc(S(=O)(=O)N(CC(C)C)C[C@@H](O)[C@H](Cc2ccccc2)NC(=O)[C@@H]2CCCCN2)cc1 | 9.48 | > 68500 | > 100000 nM | 8.84 | 79% | –
18 | CC(C)CN(C[C@@H](O)[C@H](Cc1ccccc1)NC(=O)[C@@H]1CCCN(C)C1)S(=O)(=O)c1ccc(C(F)(F)F)cc1 | 9.72 | > 119000 | > 100000 nM | 9.08 | 88% | –
19 | COc1ccc(S(=O)(=O)N(CC(C)C)C[C@@H](O)[C@H](Cc2ccccc2)NC(=O)OC[C@@H]2CCCNC2)cc1 | 10.00 | > 233000 | > 100000 nM | 9.37 | 94% | –
20 | CC(C)CN(C[C@@H](O)[C@H](Cc1ccccc1)NC(=O)[C@@H]1CCCN(C)C1)S(=O)(=O)c1ccc(N)cc1 | 9.52 | > 74100 | > 100000 nM | 8.87 | 83% | –
21 | CC(C)CN(C[C@@H](O)[C@H](Cc1ccccc1)NC(=O)[C@@H]1CCCCN1)S(=O)(=O)c1ccc(N)cc1 | 8.69 | > 11100 | > 100000 nM | 8.04 | – | –
22 | COc1ccc(S(=O)(=O)N(CC(C)C)C[C@@H](O)[C@H](Cc2ccccc2)NC(=O)OC[C@H]2CCCNC2)cc1 | 9.52 | > 74100 | > 100000 nM | 8.87 | – | –
